Literature values as cited in patent US20210268046A1, “CANNABINOID & PROBIOTIC SUPPOSITORIES & METHODS OF USE” (HoneyHills TX, LLC, priority 2020, published 2021).

Conditions: for psychotic symptoms: acute paranoid schizophrenia

Compound	psychotic symptoms	side effects (compared with Amisuipride)
C=C(C)[C@@H]1CCC(C)=C[C@H]1c1c(O)cc(CCCCC)cc1O [cannabidiol, Cannabidiol]	significant decrease	fewer side effects
CCN1CCCC1CNC(=O)c1cc(S(=O)(=O)CC)c(N)cc1OC (stereo not drawn) [Amisuipride]	significant decrease	–
